Measurements published in patent US20020176842A1, “Extended release of active ingredients” (priority 2001, published 2002).

Assay: Spectrophotometric absorption test method (uptake of drug by unloaded resin)
Format: physicochemical
Conditions: within 5 hours; 55 ml of 98 mg/l indomethacin in simulated intestinal fluid, 43 mg Cholestyramine USP, 318 nm
Procedure: It is important that the drug be absorbed by the resin. The following test method is useful in determining drug absorption by the resin. In this illustration of the test method, indomethacin and cholestyramine are used. Equipment was set up as described in Example 1, except that the effluent from the uv cell was directed back to the inlet of the pump to produce a circulation flow. 55 ml of a 98 mg/1 solution of indomethacin in simulated intestinal fluid, prepared as described below, was charged to the filtration cell and the pump and stirrer started. Flow rate was approximately 6 ml/min. Absorbance readings were taken on the uv spectrophotometer at a wavelength of 318nm until a steady baseline was obtained. 43 mg of Cholestyramine USP that had been screened to remove particles <75 microns was then added to the cell. Absorbance readings were then taken at frequent intervals to observe the uptake of indomethacin. The absorbance readings were used to calculate the indomethacin concentration from a suitably determined calibration curve and to calculate the total amount of indomethacin absorbed by the resin. In the case of the indomethacin, 92% was absorbed within 5 hours.
Preparation of simulated intestinal fluid: a solution of 6.8 g/l potassium dihydrogen phosphate in deionized water was prepared and sufficient 0.2 mol/1 sodium hydroxide s added to achieve a pH of 7.5.

## COc1ccc2c(c1)c(CC(=O)O)c(C)n2C(=O)c1ccc(Cl)cc1 [indomethacin]
  indomethacin absorbed by the resin: 92%
